Columns and labels:
Assay type in all cases: in vivo, C57BL/6 mouse
Details in all cases: 15 mg/kg orally for 14 days, foot pad electric shock and restraint stress, cerebral cortex obtained on Day 17
[1] = system: GAD67 (glutamic acid decarboxylase 67) mRNA; test: mRNA expression level of GAD67 in cerebral cortex, stress-induced sleep disturbance model (real-time PCR)
Method: (§1) 100 mg/kg extract of Fraxinus rhynchophylla and 15 mg/kg doxepin (Sigma-Aldrich, St. Louis, Mo., USA) were dissolved respectively in PBS to the designated concentration. After aliquoting them according to the required administration amount, it was orally administered in an amount of 0.1 ml for each, one hour before applying stress. To the normal and stress control, PBS was orally administered in an amount of 0.1 ml for each.
(§2) Seven-week old male C57BL/6 mouse with bodyweight of 20 to 22 g was obtained from DBL Co., Ltd. (Eumseong-Gun, Chungcheong-Bukdo, Korea). […]
(§3) Expression pattern of the gene in cerebral cortex, which has been removed from each test animal upon the completion of the test, was determined by real-time PCR. The cerebral cortex tissues of a mouse were treated with RNAzolB (Tel-Test) to extract RNA, and then analyzed by cDNA and real-time PCR instrument using One-step SYBR Green PCR kit (AB science). […] Real time quantitative PCR was carried out by using Applied Biosystems 7500 Real-Time PCR system (Applied Biosystems, USA).
(§4) Thereafter, foot pad electric shock and restrain were applied to the mouse and then cerebral cortex was collected by autopsy of the mouse to obtain RNA. cDNA was then prepared and mRNA expression level of GAD65 and GAD67 was analyzed by using real-time gene analyzer.

[2] = system: GAD65 (glutamic acid decarboxylase 65) mRNA; test: mRNA expression level of GAD65 in cerebral cortex, stress-induced sleep disturbance model (real-time PCR)
Method: as §1, §2, §3, §4

neuropeptide Y mRNA = test: mRNA expression level of neuropeptide Y in cerebral cortex, stress-induced sleep disturbance model (real-time PCR)
Method: as §1, §2, §3
Thereafter, foot pad electric shock and restrain were applied to the mouse and then cerebral cortex was collected by autopsy of the mouse to obtain RNA. cDNA was then prepared and mRNA expression of neuropeptide Y was analyzed by using real-time gene analyzer.

CN(C)CCC=C1c2ccccc2COc2ccccc21 [doxepin]
mRNA expression level of GAD67 in cerebral cortex compared to the control [1]: tend to show higher expression | mRNA expression level of GAD65 in cerebral cortex compared to the control [2]: tend to show higher expression | mRNA expression level of neuropeptide Y in cerebral cortex compared to the control (neuropeptide Y mRNA): increased in statistically significant sense | mRNA expression level of neuropeptide Y in cerebral cortex compared to the control (neuropeptide Y mRNA; listed as positive control): higher expression in significant sense

From US20210338761A1, “COMPOSITION FOR PREVENTING, AMELIORATING, OR TREATING SLEEP DISTURBANCE COMPRISING EXTRACT OF FRAXINUS SP. PLANT AS EFFECTIVE COMPONENT” (KOREA INSTITUTE OF ORIENTAL MEDICINE, priority 2018, published 2021)
